Results published in US20150175655A1 (priority 2012, published 2015).

Tests used:
Type in all cases: cell-based
[1] = test system: genotype 1a stable HCV replicon (H77 strain) in Huh-7-derived cells; test: Stable subgenomic HCV replicon EC50, genotype 1a (Renilla luciferase); conditions: Hepatitis C virus, stable replicon genotype 1a, 72 h, read-out: EC50 1A RLUC
Procedure: (§1) Antiviral potency (EC50) was determined in both stable subgenomic HCV replicon cell lines and transient-transfected HCV replicon cells. The term half maximal effective concentration (EC50) refers to the concentration of a drug which induces a response halfway between the baseline and maximum after the exposure time specified below.
(§2) Stable subgenomic HCV replicons for genotype 1a, 1 b, 2a, 3a, and 4a were established in Huh-7-derived cells as described by Lohmann et al (Lohmann V, Korner F, Koch J, et al Replication of subgenomic hepatitis C virus RNAs in a hepatoma cell line. Science 1999; 285:119-3). Each stable cell line contains a bicistronic HCV replicon that encodes a humanized Renilla luciferase (hRLuc) reporter gene fused to a selectable neomycin-resistance gene, followed by an EMCV IRES and the NS3-NS5B coding region of HCV. […] Luciferase activity was measured as a marker for intracellular HCV replication levels.
(§3) The genotype 1a stable replicon was derived from the H77 HCV strain and contained adaptive mutations P1496L and S2204I. The genotype 1 b stable replicon was derived from the Cont HCV strain and contained adaptive mutations E1202G, T1280I, and K1846T. […] The genotype 3a stable replicon was derived from the S52 HCV strain and contained adaptive mutations P1121 L, A1198T and S2210I (equivalent to S2204I in genotype 1). The genotype 4a stable replicon was derived from the ED43 HCV strain and contained adaptive mutations Q1691R and S2204I. All replicon cell lines were propagated in Huh-7-derived cells and maintained in Dulbecco's modified Eagle's Medium (DMEM) supplemented with 10% fetal bovine serum (FBS) and 0.5 mg/mL G418.
(§4) To perform EC50 assays, cells from each HCV replicon were dispensed into 384-well plates. Compounds were dissolved in DMSO at a concentration of 10 mM and diluted in DMSO using an automated pipetting instrument. Three-fold serially diluted compounds were directly added to the cells using an automated instrument. […] Seventy-two hours later, cells were lysed and Renilla luciferase activity were quantified as recommended by the manufacturer (Promega-Madison, Wis.). Non-linear regression was performed to calculate EC50 values.

[2] = test system: genotype 2a stable HCV replicon (JFH-1 strain) in Huh-7-derived cells; test: Stable subgenomic HCV replicon EC50, genotype 2a (Renilla luciferase); conditions: Hepatitis C virus, stable replicon genotype 2a, 72 h, read-out: EC50 2A RLUC
Procedure: as §1, §2, §3, §4

[3] = test system: genotype 1a (H77) wild-type transient HCV replicon in Huh-7-derived cells; test: Transient-transfected HCV replicon EC50, genotype 1a wild type; conditions: Hepatitis C virus; transient-transfected replicon genotype 1a wild type, 72 h; read-out: EC50 1A WT
[4] = test system: genotype 3a stable HCV replicon (S52 strain) in Huh-7-derived cells; test: Stable subgenomic HCV replicon EC50, genotype 3a (Renilla luciferase); conditions: Hepatitis C virus, 72 h, read-out: EC50 3A RLUC
Procedure: as §1, §2, §3, §4

[5] = test system: genotype 1a transient HCV replicon, NS3/4a protease inhibitor resistant variant R155K, in Huh-7-derived cells; test: Transient-transfected HCV replicon EC50, genotype 1a R155K; conditions: Hepatitis C virus, 72 h, read-out: EC50 1A R155K
[6] = test system: genotype 1b transient HCV replicon, NS3/4a protease inhibitor resistant variant D168A, in Huh-7-derived cells; test: Transient-transfected HCV replicon EC50, genotype 1b D168A; conditions: Hepatitis C virus, 72 h, read-out: EC50 1B D168A

SMILES | EC50 [1] [nM] | EC50 [2] [nM] | EC50 [3] [nM] | EC50 [4] [nM] | EC50 [5] [nM] | EC50 [6] [nM]
CC[C@@H]1[C@@H]2CN(C(=O)[C@H](C(C)(C)C)NC(=O)O[C@]3(C)CCC[C@H]3CCCCCc3nc4ccc(OC)cc4nc3O2)[C@@H]1C(=O)N[C@]1(C(=O)NS(=O)(=O)C2(C)CC2)C[C@H]1CC(F)F [Example 41, (3aR,7S,10S,11S,12R,24aR)-7-tert-butyl-N-[(1R,2S)-2-(2,2-difluoroethyl)-1-{[(1-methylcyclopropyl)sulfonyl]carbamoyl}cyclopropyl]-11-ethyl-16-methoxy-3a-methyl-5,8-dioxo-1,2,3,3a,5,6,7,8,11,12,20,21,22,23,24,24a-hexadecahydro-10H-9,12-methanocyclopenta[18,19][1,10,3,6]dioxadiazacyclononadecino[11,12-b]quinoxaline-10-carboxamide] | 135 | 106 | 164 |  |  | 
COc1ccc2nc3c(nc2c1)O[C@H]1CN(C(=O)[C@H](C(C)(C)C)NC(=O)O[C@@H]2C[C@H]2CCCCC3F)[C@H](C(=O)N[C@]2(C(=O)NS(=O)(=O)C3(C)CC3)C[C@H]2C(F)F)[C@@H]1C (stereo partly drawn) [Example 47, (1aR,5S,8S,9S,10R,22aR)-5-tert-butyl-N-[(1R,2R)-2-(difluoromethyl)-1-{[(1-methylcyclopropyl)sulfonyl]carbamoyl}cyclopropyl]-18-fluoro-14-methoxy-9-methyl-3,6-dioxo-1,1a,3,4,5,6,9,10,18,19,20,21,22,22a-tetradecahydro-8H-7,10-methanocyclopropa[18,19][1,10,3,6]dioxadiazacyclononadecino[11,12-b]quinoxaline-8-carboxamide] | 3.8 | 12 | 5.4 | 58 | 6.1 | 12
CC[C@@H]1[C@@H]2CN(C(=O)[C@H](C(C)(C)C)NC(=O)O[C@@H]3C[C@H]3CC/C=C/C(F)(F)C3Nc4ccc(C#N)cc4N=C3O2)[C@@H]1C(=O)N[C@]1(C(=O)NS(=O)(=O)C2(C)CC2)C[C@H]1C(F)F (stereo partly drawn) [Example 78, (1aR,5S,8S,9S,10R,19E,22aR)-5-tert-butyl-14-cyano-N-[(1R,2R)-2-(difluoromethyl)-1-{[(1-methylcyclopropyl)sulfonyl]carbamoyl}cyclopropyl]-9-ethyl-18,18-difluoro-3,6-dioxo-1,1a,3,4,5,6,9,10,17,17a,18,21,22,22a-tetradecahydro-8H-7,10-methanocyclopropa[18,19][1,10,3,6]dioxadiazacyclononadecino[11,12-b]quinoxaline-8-carboxamide] | 267 | 195 | 189 | 1120 | 225 | 248
C[C@@H]1[C@@H]2CN(C(=O)[C@H](C(C)(C)C)NC(=O)O[C@@H]3C[C@H]3CCCCC(F)(F)c3nc4ccc(Cl)cc4nc3O2)[C@@H]1C(=O)N[C@]1(C(=O)NS(=O)(=O)C2(C)CC2)C[C@H]1C(F)F [Example 88, (1aR,5S,8S,9S,10R,22aR)-5-tert-butyl-14-chloro-N-[(1R,2R)-2-(difluoromethyl)-1-{[(1-methylcyclopropyl)sulfonyl]carbamoyl}cyclopropyl]-18,18-difluoro-9-methyl-3,6-dioxo-1,1a,3,4,5,6,9,10,18,19,20,21,22,22a-tetradecahydro-8H-7,10-methanocyclopropa[18,19][1,10,3,6]dioxadiazacyclononadecino[11,12-b]quinoxaline-8-carboxamide] | 9.3 | 2.7 | 5 | 105 | 14 | 24
